Measured values from ChEMBL document CHEMBL5113398, “Design and synthesis of new quinoline derivatives as selective C-RAF kinase inhibitors with potent anticancer activity” (Eur J Med Chem, 2022).

Tests used:
A549 [1] = experiment: Anticancer activity against human A549 cells assessed as total cell growth inhibition incubated for 48 hrs by SRB assay; assay type: functional
HT-29 = experiment: Anticancer activity against human HT-29 cells assessed as cell growth inhibition incubated for 48 hrs by SRB assay; assay type: functional
HCT-116 = experiment: Anticancer activity against human HCT-116 cells assessed as total cell growth inhibition incubated for 48 hrs by SRB assay; assay type: functional
OVCAR-5 [2] = experiment: Anticancer activity against human OVCAR-5 cells assessed as cell growth inhibition incubated for 48 hrs by SRB assay; assay type: functional
M14 = experiment: Anticancer activity against human M14 cells assessed as total cell growth inhibition incubated for 48 hrs by SRB assay; assay type: functional
[3] = biological target: Dual specificity mitogen-activated protein kinase kinase 2 (Homo sapiens) (UniProt P36507); experiment: Inhibition of MEK2 (unknown origin) at 1 uM in presence of ATP by hotspot kinase assay
NCI-H226 [4] = experiment: Anticancer activity against human NCI-H226 cells assessed as total cell growth inhibition incubated for 48 hrs by SRB assay; assay type: functional
BT-549 [5] = experiment: Anticancer activity against human BT-549 cells assessed as total cell growth inhibition incubated for 48 hrs by SRB assay; assay type: functional
TK-10 = experiment: Anticancer activity against human TK-10 cells assessed as total cell growth inhibition incubated for 48 hrs by SRB assay; assay type: functional
SF-295 [6] = experiment: Anticancer activity against human SF-295 cells assessed as cell growth inhibition incubated for 48 hrs by SRB assay; assay type: functional
A549 [7] = experiment: Anticancer activity against human A549 cells assessed as cell growth inhibition incubated for 48 hrs by SRB assay; assay type: functional
MDA-MB-435 = experiment: Anticancer activity against human MDA-MB-435 cells assessed as cell growth inhibition incubated for 48 hrs by SRB assay; assay type: functional
[8] = biological target: Vascular endothelial growth factor receptor 2 (Homo sapiens) (UniProt P35968); experiment: Inhibition of KDR (unknown origin) at 1 uM in presence of ATP by hotspot kinase assay
UACC-62 [9] = experiment: Anticancer activity against human UACC-62 cells assessed as total cell growth inhibition incubated for 48 hrs by SRB assay; assay type: functional
SK-OV-3 = experiment: Anticancer activity against human SK-OV-3 cells assessed as total cell growth inhibition incubated for 48 hrs by SRB assay; assay type: functional
SN12C = experiment: Anticancer activity against human SN12C cells assessed as cell growth inhibition incubated for 48 hrs by SRB assay; assay type: functional
BT-549 [10] = experiment: Anticancer activity against human BT-549 cells assessed as cell growth inhibition incubated for 48 hrs by SRB assay; assay type: functional
COLO 205 = experiment: Anticancer activity against human COLO 205 cells assessed as cell growth inhibition incubated for 48 hrs by SRB assay; assay type: functional
KM12 = experiment: Anticancer activity against human KM12 cells assessed as cell growth inhibition incubated for 48 hrs by SRB assay; assay type: functional
OVCAR-5 [11] = experiment: Anticancer activity against human OVCAR-5 cells assessed as total cell growth inhibition incubated for 48 hrs by SRB assay; assay type: functional
SF-295 [12] = experiment: Anticancer activity against human SF-295 cells assessed as total cell growth inhibition incubated for 48 hrs by SRB assay; assay type: functional
NCI-H226 [13] = experiment: Anticancer activity against human NCI-H226 cells assessed as cell growth inhibition incubated for 48 hrs by SRB assay; assay type: functional
HCT-15 [14] = experiment: Anticancer activity against human HCT-15 cells assessed as total cell growth inhibition incubated for 48 hrs by SRB assay; assay type: functional
CAKI-1 = experiment: Anticancer activity against human CAKI-1 cells assessed as total cell growth inhibition incubated for 48 hrs by SRB assay; assay type: functional
MDA-MB-231 = experiment: Anticancer activity against human MDA-MB-231 cells assessed as cell growth inhibition incubated for 48 hrs by SRB assay; assay type: functional
PC-3 = experiment: Anticancer activity against human PC-3 cells assessed as total cell growth inhibition incubated for 48 hrs by SRB assay; assay type: functional
[15] = biological target: Platelet-derived growth factor receptor alpha (Homo sapiens) (UniProt P16234); experiment: Inhibition of PDGFRalpha (unknown origin) at 1 uM in presence of ATP by hotspot kinase assay
UACC-62 [16] = experiment: Anticancer activity against human UACC-62 cells assessed as cell growth inhibition incubated for 48 hrs by SRB assay; assay type: functional
SF-268 = experiment: Anticancer activity against human SF-268 cells assessed as total cell growth inhibition incubated for 48 hrs by SRB assay; assay type: functional
SNB-19 [17] = experiment: Anticancer activity against human SNB-19 cells assessed as cell growth inhibition incubated for 48 hrs by SRB assay; assay type: functional
NCI-H522 = experiment: Anticancer activity against human NCI-H522 cells assessed as total cell growth inhibition incubated for 48 hrs by SRB assay; assay type: functional
EKVX = experiment: Anticancer activity against human EKVX cells assessed as cell growth inhibition incubated for 48 hrs by SRB assay; assay type: functional
[18] = biological target: Hepatocyte growth factor receptor (Homo sapiens) (UniProt P08581); experiment: Inhibition of MET (unknown origin) at 1 uM in presence of ATP by hotspot kinase assay
HOP-62 = experiment: Anticancer activity against human HOP-62 cells assessed as cell growth inhibition incubated for 48 hrs by SRB assay; assay type: functional
HL-60 = experiment: Anticancer activity against human HL-60 cells assessed as cell growth inhibition incubated for 48 hrs by SRB assay; assay type: functional
MOLT-4 = experiment: Anticancer activity against human MOLT-4 cells assessed as total cell growth inhibition incubated for 48 hrs by SRB assay; assay type: functional
SK-MEL-5 [19] = experiment: Anticancer activity against human SK-MEL-5 cells assessed as total cell growth inhibition incubated for 48 hrs by SRB assay; assay type: functional
Malme-3M = experiment: Anticancer activity against human Malme-3M cells assessed as cell growth inhibition incubated for 48 hrs by SRB assay; assay type: functional
OVCAR-4 = experiment: Anticancer activity against human OVCAR-4 cells assessed as total cell growth inhibition incubated for 48 hrs by SRB assay; assay type: functional
SK-MEL-5 [20] = experiment: Anticancer activity against human SK-MEL-5 cells assessed as cell growth inhibition incubated for 48 hrs by SRB assay; assay type: functional
T47D = experiment: Anticancer activity against human T47D cells assessed as cell growth inhibition incubated for 48 hrs by SRB assay; assay type: functional
DU-145 = experiment: Anticancer activity against human DU-145 cells assessed as total cell growth inhibition incubated for 48 hrs by SRB assay; assay type: functional
[21] = Cytotoxicity against human WI-38 cells assessed as cell growth inhibition incubated for 48 hrs by SRB assay; assay type: toxicity, cell-based
HOP-92 = experiment: Anticancer activity against human HOP-92 cells assessed as cell growth inhibition incubated for 48 hrs by SRB assay; assay type: functional
UO-31 = experiment: Anticancer activity against human UO-31 cells assessed as total cell growth inhibition incubated for 48 hrs by SRB assay; assay type: functional
OVCAR-8 = experiment: Anticancer activity against human OVCAR-8 cells assessed as total cell growth inhibition incubated for 48 hrs by SRB assay; assay type: functional
SNB-19 [22] = experiment: Anticancer activity against human SNB-19 cells assessed as total cell growth inhibition incubated for 48 hrs by SRB assay; assay type: functional
UACC-257 = experiment: Anticancer activity against human UACC-257 cells assessed as total cell growth inhibition incubated for 48 hrs by SRB assay; assay type: functional
HCT-15 [23] = experiment: Anticancer activity against human HCT-15 cells assessed as cell growth inhibition incubated for 48 hrs by SRB assay; assay type: functional

Dual specificity mitogen-activated protein kinase kinase 2 (Homo sapiens), sequence (P36507 whole entry): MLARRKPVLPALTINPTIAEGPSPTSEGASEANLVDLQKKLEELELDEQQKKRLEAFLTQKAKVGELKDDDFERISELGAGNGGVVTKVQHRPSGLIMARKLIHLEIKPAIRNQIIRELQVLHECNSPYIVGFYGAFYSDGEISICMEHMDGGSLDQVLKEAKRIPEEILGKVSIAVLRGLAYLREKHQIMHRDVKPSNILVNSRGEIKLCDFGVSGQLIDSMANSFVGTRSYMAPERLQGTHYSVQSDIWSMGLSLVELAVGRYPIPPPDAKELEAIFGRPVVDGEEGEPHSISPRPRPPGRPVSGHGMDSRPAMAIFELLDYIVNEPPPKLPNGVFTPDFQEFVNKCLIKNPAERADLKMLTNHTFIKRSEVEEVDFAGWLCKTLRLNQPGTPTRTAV
Vascular endothelial growth factor receptor 2 (Homo sapiens), sequence (P35968 whole entry): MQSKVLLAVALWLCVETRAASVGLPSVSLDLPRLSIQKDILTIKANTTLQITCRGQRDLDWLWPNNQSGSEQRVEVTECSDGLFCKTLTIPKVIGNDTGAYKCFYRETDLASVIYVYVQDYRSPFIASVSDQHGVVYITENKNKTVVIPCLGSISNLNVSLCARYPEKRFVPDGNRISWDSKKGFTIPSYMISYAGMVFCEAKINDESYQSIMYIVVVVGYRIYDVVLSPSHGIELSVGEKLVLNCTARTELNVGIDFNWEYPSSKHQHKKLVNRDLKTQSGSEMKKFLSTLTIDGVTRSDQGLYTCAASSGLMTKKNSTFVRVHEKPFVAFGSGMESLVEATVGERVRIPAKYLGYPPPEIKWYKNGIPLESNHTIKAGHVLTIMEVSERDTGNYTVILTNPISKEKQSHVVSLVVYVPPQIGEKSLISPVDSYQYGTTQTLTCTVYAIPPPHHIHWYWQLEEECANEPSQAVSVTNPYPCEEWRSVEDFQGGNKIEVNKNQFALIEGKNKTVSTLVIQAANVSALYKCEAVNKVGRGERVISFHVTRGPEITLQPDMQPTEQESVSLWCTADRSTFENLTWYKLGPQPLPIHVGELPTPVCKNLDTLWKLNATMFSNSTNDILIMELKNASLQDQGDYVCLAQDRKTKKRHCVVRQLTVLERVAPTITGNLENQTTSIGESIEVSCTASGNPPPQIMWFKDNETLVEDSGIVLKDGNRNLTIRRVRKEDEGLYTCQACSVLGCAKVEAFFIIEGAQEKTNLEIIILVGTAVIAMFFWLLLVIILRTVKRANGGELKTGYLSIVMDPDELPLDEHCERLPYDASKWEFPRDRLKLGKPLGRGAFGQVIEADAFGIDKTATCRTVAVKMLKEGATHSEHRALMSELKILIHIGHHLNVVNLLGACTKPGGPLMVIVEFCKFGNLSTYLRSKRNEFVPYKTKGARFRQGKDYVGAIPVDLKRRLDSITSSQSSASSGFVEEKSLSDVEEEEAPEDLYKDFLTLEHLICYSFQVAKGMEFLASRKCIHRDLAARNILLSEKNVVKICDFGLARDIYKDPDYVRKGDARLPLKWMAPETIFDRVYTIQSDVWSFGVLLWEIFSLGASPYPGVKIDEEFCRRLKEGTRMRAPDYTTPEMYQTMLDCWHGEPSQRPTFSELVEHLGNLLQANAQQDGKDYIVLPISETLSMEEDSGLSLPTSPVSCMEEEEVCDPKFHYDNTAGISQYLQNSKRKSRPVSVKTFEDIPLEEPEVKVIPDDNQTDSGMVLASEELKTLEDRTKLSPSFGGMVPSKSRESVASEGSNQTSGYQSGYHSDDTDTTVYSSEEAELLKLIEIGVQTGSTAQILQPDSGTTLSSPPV
Hepatocyte growth factor receptor (Homo sapiens), sequence (P08581 whole entry): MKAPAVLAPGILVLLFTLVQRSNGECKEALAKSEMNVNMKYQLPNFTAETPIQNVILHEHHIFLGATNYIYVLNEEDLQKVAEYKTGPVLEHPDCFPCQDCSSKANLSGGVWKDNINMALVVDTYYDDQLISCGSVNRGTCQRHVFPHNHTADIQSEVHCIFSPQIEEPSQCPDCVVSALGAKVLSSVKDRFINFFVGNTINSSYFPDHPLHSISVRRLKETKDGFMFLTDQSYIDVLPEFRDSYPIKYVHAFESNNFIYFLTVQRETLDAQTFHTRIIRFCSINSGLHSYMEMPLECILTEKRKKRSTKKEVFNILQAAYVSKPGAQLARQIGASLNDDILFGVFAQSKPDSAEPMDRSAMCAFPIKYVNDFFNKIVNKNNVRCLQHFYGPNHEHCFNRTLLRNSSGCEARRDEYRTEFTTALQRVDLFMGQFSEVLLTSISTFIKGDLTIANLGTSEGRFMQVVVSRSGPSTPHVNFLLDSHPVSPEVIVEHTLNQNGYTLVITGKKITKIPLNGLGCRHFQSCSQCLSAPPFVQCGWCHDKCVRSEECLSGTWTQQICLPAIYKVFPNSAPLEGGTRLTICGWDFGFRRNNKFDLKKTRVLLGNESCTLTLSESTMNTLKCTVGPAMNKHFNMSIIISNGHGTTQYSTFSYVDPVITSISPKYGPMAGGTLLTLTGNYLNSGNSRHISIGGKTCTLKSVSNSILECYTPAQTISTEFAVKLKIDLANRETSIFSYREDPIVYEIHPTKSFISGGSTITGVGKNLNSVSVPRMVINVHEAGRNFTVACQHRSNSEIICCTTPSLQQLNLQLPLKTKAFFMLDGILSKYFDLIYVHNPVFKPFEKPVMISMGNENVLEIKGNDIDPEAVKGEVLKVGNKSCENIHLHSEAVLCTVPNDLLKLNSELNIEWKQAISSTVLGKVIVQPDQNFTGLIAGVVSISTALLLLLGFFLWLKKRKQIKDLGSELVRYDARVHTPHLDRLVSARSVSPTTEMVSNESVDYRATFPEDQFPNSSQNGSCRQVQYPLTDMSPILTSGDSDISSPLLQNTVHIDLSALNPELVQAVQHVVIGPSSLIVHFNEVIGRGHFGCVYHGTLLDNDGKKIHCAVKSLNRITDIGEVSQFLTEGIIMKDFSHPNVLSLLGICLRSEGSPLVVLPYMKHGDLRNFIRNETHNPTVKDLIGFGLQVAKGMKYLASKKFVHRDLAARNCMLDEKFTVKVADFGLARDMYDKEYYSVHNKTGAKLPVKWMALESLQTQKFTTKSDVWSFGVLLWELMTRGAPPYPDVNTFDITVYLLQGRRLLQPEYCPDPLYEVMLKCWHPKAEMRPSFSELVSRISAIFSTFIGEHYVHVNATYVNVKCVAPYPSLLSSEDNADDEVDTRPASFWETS
Platelet-derived growth factor receptor alpha (Homo sapiens), sequence (P16234 whole entry): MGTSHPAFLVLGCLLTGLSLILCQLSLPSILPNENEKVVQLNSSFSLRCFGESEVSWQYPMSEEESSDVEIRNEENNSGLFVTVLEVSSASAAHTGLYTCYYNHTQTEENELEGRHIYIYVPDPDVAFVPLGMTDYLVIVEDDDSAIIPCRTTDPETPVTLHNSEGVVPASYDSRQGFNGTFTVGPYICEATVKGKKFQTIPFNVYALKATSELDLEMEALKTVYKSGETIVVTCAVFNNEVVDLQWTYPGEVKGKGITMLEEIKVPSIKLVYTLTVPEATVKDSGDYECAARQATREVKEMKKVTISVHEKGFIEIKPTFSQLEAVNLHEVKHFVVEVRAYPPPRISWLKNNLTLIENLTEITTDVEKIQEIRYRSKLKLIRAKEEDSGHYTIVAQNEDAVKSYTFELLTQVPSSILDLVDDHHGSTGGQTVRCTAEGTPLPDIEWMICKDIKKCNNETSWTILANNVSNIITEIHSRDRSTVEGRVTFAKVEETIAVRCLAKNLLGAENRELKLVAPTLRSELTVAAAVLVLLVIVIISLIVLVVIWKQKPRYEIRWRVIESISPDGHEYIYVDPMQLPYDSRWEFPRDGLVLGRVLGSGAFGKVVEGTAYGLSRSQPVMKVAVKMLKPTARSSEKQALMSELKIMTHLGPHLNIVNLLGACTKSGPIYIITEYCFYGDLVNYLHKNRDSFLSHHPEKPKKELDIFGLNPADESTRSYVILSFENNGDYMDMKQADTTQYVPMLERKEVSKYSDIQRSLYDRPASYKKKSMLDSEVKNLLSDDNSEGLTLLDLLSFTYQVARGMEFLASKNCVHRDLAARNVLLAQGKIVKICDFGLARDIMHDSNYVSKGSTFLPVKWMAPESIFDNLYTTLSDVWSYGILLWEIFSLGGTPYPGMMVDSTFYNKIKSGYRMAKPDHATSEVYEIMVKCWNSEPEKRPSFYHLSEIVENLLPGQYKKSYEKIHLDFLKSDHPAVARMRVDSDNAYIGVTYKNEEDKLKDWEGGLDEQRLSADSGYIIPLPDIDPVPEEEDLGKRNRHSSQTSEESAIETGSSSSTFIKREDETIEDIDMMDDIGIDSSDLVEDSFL

## COc1cc2cc(Oc3ccc(NC(=O)Nc4ccc(F)c(C(F)(F)F)c4)cc3)c(C)nc2cc1OCCN1CCOCC1
A549 [1]
  TGI: 34.3 µM
HT-29
  GI50: 3.07 µM
HCT-116
  TGI: 11.2 µM
OVCAR-5 [2]
  GI50: 5.11 µM
M14
  TGI: 3.31 µM
[3]
  inhibition: 10.4%
NCI-H226 [4]
  TGI: 13.2 µM
BT-549 [5]
  TGI: 8.46 µM
TK-10
  TGI: 25.1 µM
SF-295 [6]
  GI50: 1.35 µM
A549 [7]
  GI50: 2.57 µM
MDA-MB-435
  GI50: 1.91 µM
[8]
  inhibition: -2.9%
UACC-62 [9]
  TGI: 4.24 µM
SK-OV-3
  TGI: 26.7 µM
SN12C
  GI50: 2.65 µM
BT-549 [10]
  GI50: 2.44 µM
COLO 205
  GI50: 1.87 µM
KM12
  GI50: 2.69 µM
OVCAR-5 [11]
  TGI: 21.7 µM
SF-295 [12]
  TGI: 4.22 µM
NCI-H226 [13]
  GI50: 2.55 µM
HCT-15 [14]
  TGI: 4.19 µM
CAKI-1
  TGI: 9.55 µM
MDA-MB-231
  GI50: 2.83 µM
PC-3
  TGI: 10.1 µM
[15]
  inhibition: 18.3%
UACC-62 [16]
  GI50: 1.36 µM
SF-268
  TGI: 19.8 µM
SNB-19 [17]
  GI50: 3.96 µM
NCI-H522
  TGI: 9.43 µM
EKVX
  GI50: 2.53 µM
[18]
  inhibition: 3.05%
HOP-62
  GI50: 3.99 µM
HL-60
  GI50: 2.38 µM
MOLT-4
  TGI: 11.4 µM
SK-MEL-5 [19]
  TGI: 2.36 µM
Malme-3M
  GI50: 1.57 µM
OVCAR-4
  TGI: 5.23 µM
SK-MEL-5 [20]
  GI50: 1.14 µM
T47D
  GI50: 1.91 µM
DU-145
  TGI: 15.2 µM
[21]
  GI50 at 48 h: > 20 µM
HOP-92
  GI50: 1.31 µM
UO-31
  TGI: 10.6 µM
OVCAR-8
  TGI: > 100 µM
SNB-19 [22]
  TGI: 19.3 µM
UACC-257
  TGI: 5.18 µM
HCT-15 [23]
  GI50: 1.73 µM

## COc1cc2cc(Oc3ccc(NC(=O)Nc4ccc(Cl)c(C(F)(F)F)c4)cc3)c(C)nc2cc1OCCN1CCOCC1
A549 [1]
  TGI: > 100 µM
HT-29
  GI50: 11.2 µM
HCT-116
  TGI: 10.8 µM
OVCAR-5 [2]
  GI50: 4.02 µM
M14
  TGI: 3.45 µM
[3]
  inhibition: 17.3%
NCI-H226 [4]
  TGI: 5.91 µM
BT-549 [5]
  TGI: 9.33 µM
TK-10
  TGI: 35.2 µM
SF-295 [6]
  GI50: 1.19 µM
A549 [7]
  GI50: 2.13 µM
MDA-MB-435
  GI50: 1.94 µM
[8]
  inhibition: 1.56%
UACC-62 [9]
  TGI: 3.46 µM
SK-OV-3
  TGI: 17.5 µM
SN12C
  GI50: 2.56 µM
BT-549 [10]
  GI50: 2.63 µM
COLO 205
  GI50: 1.63 µM
KM12
  GI50: 5.3 µM
OVCAR-5 [11]
  TGI: 65.2 µM
SF-295 [12]
  TGI: 2.85 µM
NCI-H226 [13]
  GI50: 1.86 µM
HCT-15 [14]
  TGI: 3.18 µM
CAKI-1
  TGI: 10.8 µM
MDA-MB-231
  GI50: 2 µM
PC-3
  TGI: 6 µM
[15]
  inhibition: 23.2%
UACC-62 [16]
  GI50: 1.36 µM
SF-268
  TGI: 8.44 µM
SNB-19 [17]
  GI50: 3.23 µM
NCI-H522
  TGI: 4.07 µM
EKVX
  GI50: 2.07 µM
[18]
  inhibition: 4.3%
HOP-62
  GI50: 2.05 µM
HL-60
  GI50: 2.32 µM
MOLT-4
  TGI: 10.5 µM
SK-MEL-5 [19]
  TGI: 2.37 µM
Malme-3M
  GI50: 1.52 µM
OVCAR-4
  TGI: 3.41 µM
SK-MEL-5 [20]
  GI50: 1.15 µM
T47D
  GI50: 1.32 µM
DU-145
  TGI: 13.8 µM
[21]
  GI50 at 48 h: > 20 µM
HOP-92
  GI50: 1.66 µM
UO-31
  TGI: 3.34 µM
OVCAR-8
  TGI: > 100 µM
SNB-19 [22]
  TGI: 19.8 µM
UACC-257
  TGI: 4.55 µM
HCT-15 [23]
  GI50: 3.18 µM
